Columns and labels:
[1] = system: VMRC-RCZ (Kidney Carcinoma); experiment: Bliss excess, mean over the matrix (fraction); higher = more synergy
Method in brief: (§1)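 Bliss excess equals the observed combination effect minus the expected value EA + EB − EA·EB, where EA and EB are the effects of each agent alone. Combination Emax is the second-highest inhibition within the matrix. Inhibition was scaled from CellTiter-Glo 2.0 luminescence, with 0 set by vehicle wells and 1 by blank wells, after 72 hours of two-drug dosing of cells plated in 1536-well plates.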

[2] = system: NCI-H520 (Squamous Cell Lung Carcinoma); experiment: as above
Method in brief: as §1

[3] = system: OCI-AML3 (Acute Myeloid Leukemia); experiment: as above
Method in brief: as §1

[4] = system: DMS-114 (Small Cell Lung Carcinoma); experiment: as above
Method in brief: as §1

[5] = system: KU812 (Chronic Myelogenous Leukemia); experiment: as above
Method in brief: as §1

[6] = system: MN-60 (B-Lymphoblastic Leukemia); experiment: as above
Method in brief: as §1

[7] = system: NCI-H3122 (Lung Adenocarcinoma); experiment: as above
Method in brief: as §1

[8] = system: COR-L279 (Small Cell Lung Carcinoma); experiment: as above
Method in brief: as §1

[9] = system: MOG-G-CCM (Low Grade Glioma); experiment: as above
Method in brief: as §1

[10] = system: T-T (Esophageal Squamous Cell Carcinoma); experiment: as above
Method in brief: as §1

[11] = system: ST486 (Burkitt's Lymphoma); experiment: as above
Method in brief: as §1

M059J (Glioblastoma) [12] = experiment: as above
Method in brief: as §1

[13] = system: SK-GT-4 (Esophageal Adenocarcinoma); experiment: as above
Method in brief: as §1

[14] = system: KYSE-270 (Esophageal Squamous Cell Carcinoma); experiment: as above
Method in brief: as §1

[15] = system: NCI-H526 (Small Cell Lung Carcinoma); experiment: as above
Method in brief: as §1

NCI-H2731 (Mesothelioma) [16] = experiment: as above
Method in brief: as §1

[17] = system: NCI-H929 (Plasma Cell Myeloma); experiment: as above
Method in brief: as §1

[18] = system: NCCIT (Other Solid Carcinomas); experiment: as above
Method in brief: as §1

[19] = system: CW-2 (Colorectal Carcinoma); experiment: as above
Method in brief: as §1

SJSA-1 (Osteosarcoma) [20] = experiment: as above
Method in brief: as §1

[21] = system: VMRC-RCZ (Kidney Carcinoma); experiment: combination Emax (second highest fraction inhibited in the dose matrix, 72 h); higher = more inhibition; extreme values may be limits of the assay
Method in brief: as §1

[22] = system: NCI-H520 (Squamous Cell Lung Carcinoma); experiment: as above
Method in brief: as §1

[23] = system: OCI-AML3 (Acute Myeloid Leukemia); experiment: as above
Method in brief: as §1

[24] = system: DMS-114 (Small Cell Lung Carcinoma); experiment: as above
Method in brief: as §1

[25] = system: KU812 (Chronic Myelogenous Leukemia); experiment: as above
Method in brief: as §1

[26] = system: MN-60 (B-Lymphoblastic Leukemia); experiment: as above
Method in brief: as §1

[27] = system: NCI-H3122 (Lung Adenocarcinoma); experiment: as above
Method in brief: as §1

[28] = system: COR-L279 (Small Cell Lung Carcinoma); experiment: as above
Method in brief: as §1

[29] = system: MOG-G-CCM (Low Grade Glioma); experiment: as above
Method in brief: as §1

[30] = system: T-T (Esophageal Squamous Cell Carcinoma); experiment: as above
Method in brief: as §1

[31] = system: ST486 (Burkitt's Lymphoma); experiment: as above
Method in brief: as §1

M059J (Glioblastoma) [32] = experiment: as above
Method in brief: as §1

[33] = system: SK-GT-4 (Esophageal Adenocarcinoma); experiment: as above
Method in brief: as §1

[34] = system: KYSE-270 (Esophageal Squamous Cell Carcinoma); experiment: as above
Method in brief: as §1

[35] = system: NCI-H526 (Small Cell Lung Carcinoma); experiment: as above
Method in brief: as §1

NCI-H2731 (Mesothelioma) [36] = experiment: as above
Method in brief: as §1

[37] = system: NCI-H929 (Plasma Cell Myeloma); experiment: as above
Method in brief: as §1

[38] = system: NCCIT (Other Solid Carcinomas); experiment: as above
Method in brief: as §1

[39] = system: CW-2 (Colorectal Carcinoma); experiment: as above
Method in brief: as §1

SJSA-1 (Osteosarcoma) [40] = experiment: as above
Method in brief: as §1

Row | SMILES | Bliss excess [1] | Bliss excess [2] | Bliss excess [3] | Bliss excess [4] | Bliss excess [5] | Bliss excess [6] | Bliss excess [7] | Bliss excess [8] | Bliss excess [9] | Bliss excess [10] | Bliss excess [11] | Bliss excess (M059J (Glioblastoma) [12]) | Bliss excess [13] | Bliss excess [14] | Bliss excess [15] | Bliss excess (NCI-H2731 (Mesothelioma) [16]) | Bliss excess [17] | Bliss excess [18] | Bliss excess [19] | Bliss excess (SJSA-1 (Osteosarcoma) [20]) | combination Emax [21] | combination Emax [22] | combination Emax [23] | combination Emax [24] | combination Emax [25] | combination Emax [26] | combination Emax [27] | combination Emax [28] | combination Emax [29] | combination Emax [30] | combination Emax [31] | combination Emax (M059J (Glioblastoma) [32]) | combination Emax [33] | combination Emax [34] | combination Emax [35] | combination Emax (NCI-H2731 (Mesothelioma) [36]) | combination Emax [37] | combination Emax [38] | combination Emax [39] | combination Emax (SJSA-1 (Osteosarcoma) [40])
1 | C[C@@H]1COCCN1c1cc(C2([S@](C)(=N)=O)CC2)nc(-c2ccnc3[nH]ccc23)n1 [AZD6738] + Nc1ccn([C@@H]2O[C@H](CO)[C@@H](O)C2(F)F)c(=O)n1 [Gemcitabine] (first compound max 10 µM, 7x7, partner max 0.3 µM) | 0.0193 | 0.0434 | -0.0143 | 0.0549 | -0.0077 | -0.0375 | 0.0297 | 0.0205 | 0.0311 | 0.221 | 0.0362 | 0.0209 | 0.023 | 0.0806 | 0.0678 | 0.0371 | 0 | 0.107 | 0.0109 | -0.0104 | 0.542 | 0.916 | 0.953 | 0.78 | 0.853 | 0.72 | 0.899 | 0.995 | 0.783 | 0.897 | 0.98 | 0.823 | 0.585 | 1 | 0.973 | 0.511 | 0.906 | 0.839 | 0.659 | 0.722
2 | C=CCn1c(=O)c2cnc(Nc3ccc(N4CCN(C)CC4)cc3)nc2n1-c1cccc(C(C)(C)O)n1 [AZD1775] + Nc1ccn([C@@H]2O[C@H](CO)[C@@H](O)C2(F)F)c(=O)n1 [Gemcitabine] (first compound max 1 µM, partner max 0.3 µM) | 0.0417 | 0.0314 | 0.0084 | 0.0581 | -0.0107 | -0.0157 | -0.0379 | 0.0556 | 0.0455 | 0.0692 | 0.0019 | 0.0175 | 0.006 | 0.0411 | 0.0642 | 0.0305 | 0.0302 | 0.0864 | -0.0511 | -0.0822 | 0.481 | 0.871 | 0.95 | 0.643 | 0.836 | 0.653 | 0.803 | 0.987 | 0.778 | 0.521 | 0.985 | 0.802 | 0.44 | 0.983 | 0.968 | 0.533 | 0.906 | 0.899 | 0.559 | 0.656
3 | CN(CCO)CC[C@H](CSc1ccccc1)Nc1ccc(S(=O)(=O)NC(=O)c2ccc(N3CCC([C@@H](O)c4ccccc4-c4ccc(Cl)cc4)CC3)cc2)cc1S(=O)(=O)C(F)(F)F [AZD4320] + Nc1ccn([C@@H]2O[C@H](CO)[C@@H](O)C2(F)F)c(=O)n1 [Gemcitabine] (first compound max 1 µM, 7x7, partner max 0.3 µM) | 0.0103 | -0.0178 | 0.0034 | 0.0444 | -0.0788 | -0.0618 | -0.0298 | 0.0843 | -0.0629 | 0.0546 | -0.0194 | -0.0021 | -0.0288 | -0.0293 | 0.0952 | 0.0222 | -0.0176 | -0.0058 | -0.058 | 0.0439 | 0.589 | 0.894 | 0.984 | 0.524 | 0.954 | 0.493 | 0.846 | 1 | 0.597 | 0.476 | 0.972 | 0.837 | 0.31 | 0.89 | 0.993 | 0.44 | 0.9 | 0.187 | 0.557 | 0.952

— the supplement of paper PMC11061612
